# Experimental data reported in publication PMC12616683, “In Vivo Atlas of Neuroprotective Cyclic Dipeptides Derived from Food Gelatin Using Peptidomics and Feature-Based Molecular Networking” (Journal of Agricultural and Food Chemistry, 2025).
# Peptide text beside a SMILES is read from it.
# Assay: FBMN analysis of short peptides in small intestine contents and serum after oral DHG
# Conditions: serum, time points 0.5-4 h after oral DHG
row,SMILES,time detected in serum (FBMN) [h]
1,CC(C)C[C@@H]1NC(=O)[C@H](Cc2ccccc2)NC1=O [cyclo(Leu-Phe)],0.5 to 4
2,N[C@@H](CCC(=O)O)C(=O)N[C@@H](Cc1ccccc1)C(=O)O [Glu-Phe],≥ 4

# Same assay, conditions: small intestine contents, 30 min after oral DHG, C57 mice; FBMN feature intensity, peptides smaller than 690 Da
row,SMILES,"Peptide signal (feature intensity) in the small intestine, 30 min"
1,CC(C)[C@@H]1NC(=O)[C@@H]2CCCN2C1=O [cyclo(L-Val-L-Pro)],3.95E+05
2,NC(Cc1ccc(O)cc1)C(=O)NC(Cc1ccc(O)cc1)C(=O)O (stereo not drawn) [Tyr-Tyr] (H-Tyr-Tyr-OH; configuration not given here),2.40E+05
3,CC(C)CC(NC(=O)C(N)C(C)C)C(=O)O (stereo not drawn) [Val-Leu] (H-Val-Leu-OH; configuration not given here),2.94E+06
4,CC(C)C[C@H](NC(=O)[C@@H](N)[C@@H](C)O)C(=O)O [Thr-Leu] (H-Thr-Leu-OH),0.00E+00
5,CSCCC(N)C(=O)NC(CC(C)C)C(=O)O (stereo not drawn) [Met-Leu] (H-Met-Leu-OH; configuration not given here),0.00E+00
6,Nc1nc2c(ncn2[C@@H]2O[C@H](CO)[C@@H](O)[C@H]2O)c(=O)[nH]1 [Guanosine],8.57E+06
7,CC(C)CC(NC(=O)C(N)CO)C(=O)O (stereo not drawn) [Ser-Leu] (H-Ser-Leu-OH; configuration not given here),0.00E+00
8,CC(C)CC(NC(=O)C(N)Cc1ccc(O)cc1)C(=O)O (stereo not drawn) [Tyr-Leu] (H-Tyr-Leu-OH; configuration not given here),2.28E+06
9,CSCC[C@H](N)C(=O)N[C@@H](Cc1ccccc1)C(=O)O [Met-Phe] (H-Met-Phe-OH),0.00E+00
10,O=C1CNC(=O)C(Cc2ccccc2)N1 [cyclo(glycinyl-L-phenylalanine)],1.21E+06
11,CC(C)C[C@H](NC(=O)[C@@H](N)CC(=O)O)C(=O)O [Asp-Leu] (H-Asp-Leu-OH),5.68E+06
12,CSCC[C@H](N)C(=O)O [Methionine],0.00E+00
13,N[C@@H](CCC(=O)O)C(=O)N[C@@H](Cc1ccccc1)C(=O)O [Glu-Phe],0.00E+00

# Same assay, conditions: small intestine contents, 60 min after oral DHG, C57 mice; FBMN feature intensity, peptides smaller than 690 Da
row,SMILES,"Peptide signal (feature intensity) in the small intestine, 60 min"
1,CC(C)[C@@H]1NC(=O)[C@@H]2CCCN2C1=O [cyclo(L-Val-L-Pro)],0.00E+00
2,NC(Cc1ccc(O)cc1)C(=O)NC(Cc1ccc(O)cc1)C(=O)O (stereo not drawn) [Tyr-Tyr] (H-Tyr-Tyr-OH; configuration not given here),1.86E+06
3,CC(C)CC(NC(=O)C(N)C(C)C)C(=O)O (stereo not drawn) [Val-Leu] (H-Val-Leu-OH; configuration not given here),3.78E+06
4,CC(C)C[C@H](NC(=O)[C@@H](N)[C@@H](C)O)C(=O)O [Thr-Leu] (H-Thr-Leu-OH),4.45E+06
5,CSCCC(N)C(=O)NC(CC(C)C)C(=O)O (stereo not drawn) [Met-Leu] (H-Met-Leu-OH; configuration not given here),0.00E+00
6,Nc1nc2c(ncn2[C@@H]2O[C@H](CO)[C@@H](O)[C@H]2O)c(=O)[nH]1 [Guanosine],2.01E+06
7,CC(C)CC(NC(=O)C(N)CO)C(=O)O (stereo not drawn) [Ser-Leu] (H-Ser-Leu-OH; configuration not given here),1.15E+07
8,CC(C)CC(NC(=O)C(N)Cc1ccc(O)cc1)C(=O)O (stereo not drawn) [Tyr-Leu] (H-Tyr-Leu-OH; configuration not given here),2.16E+06
9,CSCC[C@H](N)C(=O)N[C@@H](Cc1ccccc1)C(=O)O [Met-Phe] (H-Met-Phe-OH),0.00E+00
10,O=C1CNC(=O)C(Cc2ccccc2)N1 [cyclo(glycinyl-L-phenylalanine)],0.00E+00
11,CC(C)C[C@H](NC(=O)[C@@H](N)CC(=O)O)C(=O)O [Asp-Leu] (H-Asp-Leu-OH),2.91E+06
12,CSCC[C@H](N)C(=O)O [Methionine],0.00E+00
13,N[C@@H](CCC(=O)O)C(=O)N[C@@H](Cc1ccccc1)C(=O)O [Glu-Phe],3.96E+06

# Same assay, conditions: small intestine contents, 120 min after oral DHG, C57 mice; FBMN feature intensity, peptides smaller than 690 Da
row,SMILES,"Peptide signal (feature intensity) in the small intestine, 120 min"
1,CC(C)[C@@H]1NC(=O)[C@@H]2CCCN2C1=O [cyclo(L-Val-L-Pro)],6.03E+05
2,NC(Cc1ccc(O)cc1)C(=O)NC(Cc1ccc(O)cc1)C(=O)O (stereo not drawn) [Tyr-Tyr] (H-Tyr-Tyr-OH; configuration not given here),0.00E+00
3,CC(C)CC(NC(=O)C(N)C(C)C)C(=O)O (stereo not drawn) [Val-Leu] (H-Val-Leu-OH; configuration not given here),0.00E+00
4,CC(C)C[C@H](NC(=O)[C@@H](N)[C@@H](C)O)C(=O)O [Thr-Leu] (H-Thr-Leu-OH),0.00E+00
5,CSCCC(N)C(=O)NC(CC(C)C)C(=O)O (stereo not drawn) [Met-Leu] (H-Met-Leu-OH; configuration not given here),4.03E+05
6,Nc1nc2c(ncn2[C@@H]2O[C@H](CO)[C@@H](O)[C@H]2O)c(=O)[nH]1 [Guanosine],0.00E+00
7,CC(C)CC(NC(=O)C(N)CO)C(=O)O (stereo not drawn) [Ser-Leu] (H-Ser-Leu-OH; configuration not given here),0.00E+00
8,CC(C)CC(NC(=O)C(N)Cc1ccc(O)cc1)C(=O)O (stereo not drawn) [Tyr-Leu] (H-Tyr-Leu-OH; configuration not given here),0.00E+00
9,CSCC[C@H](N)C(=O)N[C@@H](Cc1ccccc1)C(=O)O [Met-Phe] (H-Met-Phe-OH),5.87E+05
10,O=C1CNC(=O)C(Cc2ccccc2)N1 [cyclo(glycinyl-L-phenylalanine)],9.00E+05
11,CC(C)C[C@H](NC(=O)[C@@H](N)CC(=O)O)C(=O)O [Asp-Leu] (H-Asp-Leu-OH),7.39E+06
12,CSCC[C@H](N)C(=O)O [Methionine],1.12E+05
13,N[C@@H](CCC(=O)O)C(=O)N[C@@H](Cc1ccccc1)C(=O)O [Glu-Phe],0.00E+00

# Same assay, conditions: small intestine contents, 240 min after oral DHG, C57 mice; FBMN feature intensity, peptides smaller than 690 Da
row,SMILES,"Peptide signal (feature intensity) in the small intestine, 240 min"
1,CC(C)[C@@H]1NC(=O)[C@@H]2CCCN2C1=O [cyclo(L-Val-L-Pro)],4.57E+05
2,NC(Cc1ccc(O)cc1)C(=O)NC(Cc1ccc(O)cc1)C(=O)O (stereo not drawn) [Tyr-Tyr] (H-Tyr-Tyr-OH; configuration not given here),0.00E+00
3,CC(C)CC(NC(=O)C(N)C(C)C)C(=O)O (stereo not drawn) [Val-Leu] (H-Val-Leu-OH; configuration not given here),0.00E+00
4,CC(C)C[C@H](NC(=O)[C@@H](N)[C@@H](C)O)C(=O)O [Thr-Leu] (H-Thr-Leu-OH),8.43E+06
5,CSCCC(N)C(=O)NC(CC(C)C)C(=O)O (stereo not drawn) [Met-Leu] (H-Met-Leu-OH; configuration not given here),3.59E+05
6,Nc1nc2c(ncn2[C@@H]2O[C@H](CO)[C@@H](O)[C@H]2O)c(=O)[nH]1 [Guanosine],0.00E+00
7,CC(C)CC(NC(=O)C(N)CO)C(=O)O (stereo not drawn) [Ser-Leu] (H-Ser-Leu-OH; configuration not given here),1.59E+07
8,CC(C)CC(NC(=O)C(N)Cc1ccc(O)cc1)C(=O)O (stereo not drawn) [Tyr-Leu] (H-Tyr-Leu-OH; configuration not given here),0.00E+00
9,CSCC[C@H](N)C(=O)N[C@@H](Cc1ccccc1)C(=O)O [Met-Phe] (H-Met-Phe-OH),2.12E+06
10,O=C1CNC(=O)C(Cc2ccccc2)N1 [cyclo(glycinyl-L-phenylalanine)],4.18E+05
11,CC(C)C[C@H](NC(=O)[C@@H](N)CC(=O)O)C(=O)O [Asp-Leu] (H-Asp-Leu-OH),1.44E+07
12,CSCC[C@H](N)C(=O)O [Methionine],2.58E+05
13,N[C@@H](CCC(=O)O)C(=O)N[C@@H](Cc1ccccc1)C(=O)O [Glu-Phe],1.66E+07
